From ChEMBL document CHEMBL1145565, “Synthesis, biological evaluation and radiochemical labeling of a dansylhydrazone derivative as a potential imaging agent for apoptosis” (2008)
Calls of active or inactive are those of the source. The calls are words filed in the database; no cut-off is given here.

Assays:
MCF7 [1] = assay: Induction of apoptosis in human MCF7 cells assessed as morphology at 50 nM after 16 hrs; format: functional
K562 = assay: Effect on drug-uptake in imatinib-induced human K562 apoptotic cells; format: functional, cell-based
HT-29 = assay: Effect on drug-uptake in imatinib-induced human HT29 apoptotic cells; format: functional, cell-based
MCF7 [2] = assay: Effect on drug uptake in cytoplasm of paclitaxel-treated human MCF7 apoptotic cells; format: functional, cell-based

CC(=O)O[C@H]1C(=O)[C@@]2(C)[C@H]([C@H](OC(=O)c3ccccc3)[C@]3(O)C[C@H](OC(=O)[C@H](O)[C@@H](NC(=O)c4ccccc4)c4ccccc4)C(C)=C1C3(C)C)[C@]1(OC(C)=O)CO[C@@H]1C[C@@H]2O [PACLITAXEL]
Activity (MCF7 [1]): 30%

Cc1cc(=O)cc2c3c1[C@@H]1O[C@H]4[C@@H]5OC(=O)[C@](CC2)([C@@H]4C)[C@H]3[C@@H]51
Activity (K562): Active
Activity (HT-29): Active

CN(C)c1cccc2c(S(=O)(=O)N/N=C/c3ccc([N+](=O)[O-])cc3)cccc12
Activity (K562): Active
Activity (HT-29): Active

CN(C)c1cccc2c(S(=O)(=O)N/N=C\c3ccc(F)cc3)cccc12
Activity (MCF7 [2]): Active

CN(C)c1ccc(/C=N/NS(=O)(=O)c2cccc3c(N(C)C)cccc23)cc1
Activity (K562): Active
Activity (HT-29): Active

CN(C)c1cccc2c(S(=O)(=O)N/N=C/c3ccc(I)cc3)cccc12
Activity (K562): Active
Activity (HT-29): Active
